Measured values from patent US20220288028A1, “A THERAPEUTIC APPROACH FOR TREATING NON-INFECTIOUS OCULAR IMMUNOINFLAMMATORY DISORDERS” (The Schepens Eye Research Institute, Inc., priority 2019, published 2022).
Counter-ions that a name gives are not always drawn.

What was measured:
ocular redness [1] = assay: Rabbit model of non-allergic (non-infectious) ocular redness induced by dapiprazole, Ocular Redness Index (ORI); assay type: in vivo
Description: (§1) An Image J-based, objective quantification method of ocular redness severity was developed without relying on ophthalmologists' subjective scoring (Amparo, et al. “The Ocular Redness Index: A Novel Automated Method for Measuring Ocular Injection.” Investigative Ophthalmology & Visual Science, 2013, pp. Quick submit: 2017-06-18T21:14:33-0400). This digital scoring method automatically analyzes patient eye images and gives the score as Ocular Redness Index (ORI), which ranges on a continuous centesimal scale from 0 to 100, with 100 the most severe redness. This method has been used in the animal models of ocular redness to evaluate the severity of redness.
(§2) The results obtained can be seen in FIGS. 10-14. In the evaluation of ocular redness in animal models using Ocular Redness Index (ORI) with Image J the following steps. Step 1: The conjunctival image was captured by means of a digital camera and was recorded as an RGB color JPEG image (3264×2448 pixels). […] Step 3: An ROI (Region Of Interest, area inside the yellow circle) was selected as the evaluation area by user, and the program read the red-green-blue (RGB) values of each pixel, converting it to huesaturation-value (HSV) space, and ultimately converted these values into a numeric centesimal value for redness in the selected area automatically. […]

ocular redness [2] = assay: Guinea pig model of allergic ocular redness induced by histamine, Ocular Redness Index (ORI); assay type: in vivo; details: topical 1.0 mg/ml with 1.5 mg/ml histamine instillation, 20 μl; 1 hour; vs untreated induced control
Description: as §1, §2

DED mice [3] = assay: Mouse model of DED, topical NK1R antagonist: corneal fluorescein staining (CFS); assay type: in vivo, C57BL/6 mice; details: topical 1 μg/μl three times per day, day 4 to 14; at day 7, 10 and 14; vs untreated and PBS-treated; p<0.05
Description: FIGS. 6A, 6B, 7C, 8A-8C, and 9A-9D show the results of evaluating the in vivo therapeutic efficacy of blocking SP signaling in animal models of DED and ocular redness. DED was induced by exposing wild-type mice to desiccating stress using a controlled environment chamber for 14 days. No any other manipulations were used in the model. After 4 days induction, a clinical overt disease developed in mice (art-recognized model) and then a topical NK1R antagonist of either CP-99,994 or L-733,060, 3×/day, started and lasted for 10 days (until day 14). Untreated or PBS-treated mice serve as controls. Clinical severity of the disease was evaluated by clinical fluorescein scoring (CFS) using the National Eye Institute/Industry NEI grading scheme. […]
Induction of Dry Eye Disease (DED): DED was induced by housing the mice in a low-humidity (relative humidity: <20%) controlled environment chamber (CEC) with constant airflow of 15 L/min and temperature of 21 to 23° C. for 14 days. […] Corneal epithelial disease was evaluated using fluorescein (Sigma-Aldrich) staining and scored using the National Eye Institute grading system (NEI, Bethesda, Md.; Chen Y. et al. IFN-gamma-Expressing TH17 Cells Are Required for Development of Severe Ocular Surface Autoimmunity. J Immunol 2017, 199:1163-9). […]

DED mice [4] = assay: Mouse model of DED, topical NK1R antagonist: flow cytometry of cornea, draining lymph nodes and conjunctivae; assay type: in vivo, C57BL/6 mice; details: topical 1 μg/μl three times per day, day 14; for frequencies of MHC-II^hi CD11b^+ cells in the cornea: day 4 to 14; for frequencies of TH17 cells in the DLNs / frequencies of mature MHC-II^hi CD11b^+ cells in the DLNs / level of MHC-II expression by CD11b^+ cells in the DLNs: vs PBS
Procedure: (§3) Induction of Dry Eye Disease (DED): DED was induced by housing the mice in a low-humidity (relative humidity: <20%) controlled environment chamber (CEC) with constant airflow of 15 L/min and temperature of 21 to 23° C. for 14 days. Age- and sex-matched mice housed in room air conditions served as controls. Corneal epithelial disease was evaluated using fluorescein (Sigma-Aldrich) staining and scored using the National Eye Institute grading system (NEI, Bethesda, Md.; Chen Y. et al. IFN-gamma-Expressing TH17 Cells Are Required for Development of Severe Ocular Surface Autoimmunity. J Immunol 2017, 199:1163-9). 1 μl of 2.5% fluorescein was applied into the lateral conjunctival sac of the mice and after 3 minutes corneas were examined with a slit lamp biomicroscope under cobalt blue light. Punctate staining was recorded in a masked fashion with the standard National Eye Institute grading system of 0-3 for each of the five areas of the cornea.
Topical Treatment with NK1R Antagonist: Mice were assigned to one of four groups (n=5 each). 1 μg/μl of NK1R antagonists CP-99,994, L-733,060 (R&D systems, Minneapolis, MN) or PBS was administered topically three times per day from day 4 to day 14 after DED induction. Untreated DED mice served as controls.
Single Cell Suspension Preparation and Flow Cytometry: Submandibular and cervical draining lymph nodes (DLNs) were harvested and single cell suspensions were prepared. Cells were stimulated with phorbol 12-myristate 13-acetate (PMA, 50 ng/mL; Sigma-Aldrich) and Ionomycin (500 ng/mL; Sigma-Aldrich) for 6 hours in the presence of a commercial protein transport inhibitor (0.7 μL/100 μL media, Golgistop; BD Biosciences, San Jose, Calif.). Conjunctivae were harvested by lifting at the junction of bulbar and palpebral conjunctiva and dissecting along both bulbar and palpebral insertion points (Vannas Scissors; Storz, Bausch & Lomb). Conjunctiva samples were cultured in RPMI (Thermo Fisher Scientific, Waltham, Mass.) supplemented with 10% fetal bovine serum (FBS) and stimulated with PMA (50 ng/mL; Sigma-Aldrich) and Ionomycin (500 ng/mL; Sigma-Aldrich) in the presence of a protein transport inhibitor (0.7 μL/100 μL media, Golgistop; BD Biosciences) at 37° C. for 24 hours. Harvested corneas were digested in RPMI media containing 2 mg/ml collagenase type IV (Sigma-Aldrich) and 2 mg/ml DNase I (Roche) for 1 h at 37° C. The suspension was then filtered through a 70-μm cell strainer. Single-cell suspensions of DLN and cornea were stained with the following antibodies: Brilliant Violet 421-conjugated anti-mouse I-A/I-E (MHC-II), PE-conjugated anti-CD11c (BD Pharmingen, San Jose, Calif.), PerCP/Cy5.5-conjugated anti-CD11b, FITC-conjugated anti-CD4 (BioLegend, San Diego, Calif.), and PE-conjugated anti-interleukin 17A (eBioscience, San Diego, Calif.). Intranuclear staining with PE/Cy7-conjugated anti-Foxp3 (eBioscience) was performed after fixation and permeabilization of cells. Control samples were stained with appropriate isotype-matched antibodies. Stained cells were examined using an LSRII Flow Cytometer (BD Biosciences, Franklin Lakes, N.J., USA), and data were analyzed using commercial Summit software (Summit v4.3; Dako Colorado, Inc., Fort Collins, Colo.).

IL-17 = assay: Mouse model of DED, topical NK1R antagonist: real-time PCR of conjunctivae; assay type: in vivo, C57BL/6 mice; details: topical 1 μg/μl three times per day; day 14; vs PBS; p=0.001
Procedure: as §3, with “1 μl of 2.5% fluorescein was applied into the lateral conjunctival sac of the mice and after 3 minutes corneas were examined with a slit lamp biomicroscope under cobalt blue light.” left out, “cornea. […]” for “cornea.”
Real-Time PCR: Bulbar and palpebral conjunctiva, cornea and trigeminal ganglion were harvested from mice and stored in TRIzol reagent (Invitrogen, Carlsbad, Calif.) at −80° C. until RNA was isolated and reverse-transcribed using RNeasy micro kit (Qiagen, Valencia, Calif.) and SuperScript III kit (Invitrogen). […] Samples were analyzed using a real-time PCR system (LightCycler 480 II System; Roche Applied Science, Indianapolis, Ind.), and results were analyzed by the comparative threshold cycle method, using GAPDH as an internal control.

[5] = tested on: corneal epithelial wound healing; details: subconjunctival injection, diabetic mice; cited from earlier work
[6] = prevents use as an eye drop formulation; cited from earlier work

With `Ic1ccccc1CN[C@@H]1C2CCN(CC2)[C@@H]1C(c1ccccc1)c1ccccc1` (racemic) [L-703,606] the “ocular redness (change in ORI score)” value (ocular redness [1]; topical 1.0 mg/ml with 5% dapiprazole instillation, 40 μl, 1 hour, vs untreated induced control) was “rapidly and consistently ameliorating the ocular redness” and the “ocular redness (change in ORI score)” value (ocular redness [2]) was “rapidly and consistently ameliorating the ocular redness”.
In the case of `COc1ccccc1CN[C@H]1CCCN[C@H]1c1ccccc1` [CP-99,994, (2S,3S)-N-[(2-Methoxyphenyl)methyl]-2-phenyl-3-piperidinamine dihydrochloride], the “CFS scores and DED severity” value (DED mice [3]) is reported as “significantly reduced CFS scores and DED severity”, the “frequencies of MHC-II^hi CD11b^+ cells in the cornea” value (DED mice [4]) is reported as “significantly lower” and the “frequencies of TH17 cells in the DLNs” value (DED mice [4]) is reported as “significantly decreased”. For the same compound, the “frequencies of mature MHC-II^hi CD11b^+ cells in the DLNs” value (DED mice [4]) was “significant decrease”, the “level of MHC-II expression by CD11b^+ cells in the DLNs” value (DED mice [4]) was “significant decrease” and the “mRNA expression levels of IL-17 in conjunctivae” value (IL-17) was “significant reduction”.
In the case of `FC(F)(F)c1cc(CO[C@H]2CCCN[C@H]2c2ccccc2)cc(C(F)(F)F)c1` [L-733,060, (2S,3S)-3-[[3,5-bis(Trifluoromethyl)phenyl]methoxy]-2-phenylpiperidine hydrochloride], the “CFS scores and DED severity” value (DED mice [3]) is reported as “significantly reduced CFS scores and DED severity”, the “frequencies of MHC-II^hi CD11b^+ cells in the cornea” value (DED mice [4]) is reported as “significantly lower” and the “frequencies of TH17 cells in the DLNs” value (DED mice [4]) is reported as “significantly decreased”. For the same compound, the “frequencies of mature MHC-II^hi CD11b^+ cells in the DLNs” value (DED mice [4]) was “significant decrease”, the “level of MHC-II expression by CD11b^+ cells in the DLNs” value (DED mice [4]) was “significant decrease” and the “mRNA expression levels of IL-17 in conjunctivae” value (IL-17) was “significant reduction”. For the same compound, the “protective role of SP on epithelial healing” value [5] was “significantly inhibits the protective role of SP on epithelial healing”.
For `C[C@@H](O[C@H]1OCCN(Cc2n[nH]c(=O)[nH]2)[C@H]1c1ccc(F)cc1)c1cc(C(F)(F)F)cc(C(F)(F)F)c1` [MK-869, 5-[[(2R,3S)-2-[(1R)-[3,5-Bis(trifluoromethyl)phenyl]ethoxy]-3-(4-fluorophenyl)-4-morpholinylinyl]methyl]-1,2-dihydro-3H-1,2,4-triazol-3-one], the water solubility [6] is given as “Poor water solubility”.
In the case of `Cc1ccccc1N1CCN(CCc2nnc3n2CCCC3)CC1` [dapiprazole], the “change in ORI score after induction” value (ocular redness [1]; 5% dapiprazole, 40 μl topical, series of increasing concentrations, 1-hour observation, vs PBS) is reported as “highest increase in ORI score”.
